Reference: ChEMBL document CHEMBL1130639, “Synthesis of anti-rheumatic agent epoxyquinomicin B” (Bioorg Med Chem Lett, 1998)

Test: Lethal dose upon intraperitoneal administration.
Format: ADME
Details: ip

O=C(NC1=CC(=O)[C@]2(CO)O[C@@H]2C1=O)c1ccccc1O
LD50: 50 mg/kg
